Assay results from patent US4277479A, “Tetrazolylalkoxycarbostyril derivatives and pharmaceutical compositions containing them” (Otsuka Pharmaceutical Co., Ltd., priority 1978, dated 1981).
Where two headings read alike, the source gives them in different places.

Experiments:
[1] = biological target: T1, cyclic AMP phosphodiesterase (Oryctolagus cuniculus, UniProt G1ST54); test: Obstructive action against cyclic AMP phosphodiesterase; assay type: biochemical, rabbit; details: 0.4 μmol cyclic AMP, read-out: Phosphodiesterase obstruction rate
T1 construct: the supernatant was collected to use it as a crude enzyme solution; from tissue; host or cells: rabbit platelets (from platelet-rich plasma)
T1 sequence (G1ST54 1-1128): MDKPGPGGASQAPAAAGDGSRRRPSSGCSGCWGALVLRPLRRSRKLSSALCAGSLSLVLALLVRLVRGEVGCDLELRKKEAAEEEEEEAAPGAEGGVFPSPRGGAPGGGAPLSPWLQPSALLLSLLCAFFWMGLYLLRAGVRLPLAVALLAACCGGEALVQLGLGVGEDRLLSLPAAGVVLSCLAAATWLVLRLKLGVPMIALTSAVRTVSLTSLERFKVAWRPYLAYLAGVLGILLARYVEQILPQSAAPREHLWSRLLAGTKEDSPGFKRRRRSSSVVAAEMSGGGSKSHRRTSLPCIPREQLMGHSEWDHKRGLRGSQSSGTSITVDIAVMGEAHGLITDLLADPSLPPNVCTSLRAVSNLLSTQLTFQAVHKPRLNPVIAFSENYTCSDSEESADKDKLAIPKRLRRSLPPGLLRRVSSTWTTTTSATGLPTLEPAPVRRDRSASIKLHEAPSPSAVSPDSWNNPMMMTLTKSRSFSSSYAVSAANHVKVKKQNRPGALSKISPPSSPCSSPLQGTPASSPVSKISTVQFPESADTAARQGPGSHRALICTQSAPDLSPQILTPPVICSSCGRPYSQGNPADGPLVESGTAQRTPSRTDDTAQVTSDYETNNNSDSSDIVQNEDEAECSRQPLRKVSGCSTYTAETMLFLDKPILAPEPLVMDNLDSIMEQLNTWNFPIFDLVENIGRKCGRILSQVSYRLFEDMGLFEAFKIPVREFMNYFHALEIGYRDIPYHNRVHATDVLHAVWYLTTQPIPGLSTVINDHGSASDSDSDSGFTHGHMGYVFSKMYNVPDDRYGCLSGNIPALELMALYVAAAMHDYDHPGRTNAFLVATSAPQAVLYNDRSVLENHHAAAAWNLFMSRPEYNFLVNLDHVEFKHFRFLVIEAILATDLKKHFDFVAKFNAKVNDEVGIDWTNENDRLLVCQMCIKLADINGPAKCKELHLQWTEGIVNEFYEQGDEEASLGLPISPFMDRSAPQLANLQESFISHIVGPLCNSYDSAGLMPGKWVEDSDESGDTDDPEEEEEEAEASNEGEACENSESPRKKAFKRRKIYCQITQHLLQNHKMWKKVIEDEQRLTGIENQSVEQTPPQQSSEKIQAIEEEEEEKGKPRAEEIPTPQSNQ
Method: (Test of obstructive action against cyclic AMP phosphodiesterase)
The obstructive action against cyclic AMP phosphodiesterase was measured according to the activity measuring method described in "Biochimica et Biophysica Acta", Vol. 429, pp. 485-497 (1976) and "Biochemical Medicine", Vol. 10, pp. 301-311 (1974).
That is, for determining the obstructive activity against cyclic AMP phosphodiesterase, 10 ml of a solution obtained by adding 1 mmol of MgCl2 into 50 mmol of tris-hydrochloric acid buffer with pH 7.4 was added to the platelets obtained by further centrifuging the above-said rabbit PRP at 3,000 r.p.m. for 10 minutes, and the suspended platelets were ground by a Teflon potter type homogenizer. This was followed by two times of freezing and thawing treatment and 300-second fracturing with 200 watt supersonic waves. After additional 60-minute centrifugation with 100,000 g, the supernatant was collected to use it as a crude enzyme solution.
10 Milliliters of this crude buffer solution was added to a 1.5×20 cm DEAE-cellulose column which has previously been buffered with 50 mmol of tris-acetate buffer (pH 6.0), followed by washing and elution with 30 ml of 50 mmol tris-acetate buffer, and this buffer solution was subjected to linear gradient elution with 0 to 1 moles of sodium acetate-tris-acetate buffer. The flow rate was 0.5 ml/min, and 5 ml of each fraction was batched out. […] This fraction was used as cyclic AMP phosphodiesterase.
0.1 Milliliter of an aqueous solution of each test compound of a specified concentration was mixed with 40 mmol of tris-hydrochloric acid buffer (pH 8.0, containing 50 μg of cow serum albumin and 4 mmol of MgCl2) containing predetermined 0.4 μmol of cyclic AMP (tritium cyclic AMP), and 0.2 ml of this mixed solution was used as a substrate solution.
0.2 Milliliter of the above-prepared cyclic AMP phosphodiesterase of a predetermined concentration was added to said substrate solution and the mixture was reacted at 30° C. for 20 minutes, producing tritium 5'-AMP from the tritium cyclic AMP.
The reaction system was then immersed in boiling water for 2 minutes to stop the reaction, and then this reaction solution was cooled in ice water and, for converting the produced tritium 5'-AMP into tritium adenosine, the solution was added with 0.05 ml (1 mg/ml) of snake poison as 5'-nucleotidase and reacted at 30° C. for 10 minutes. The whole amount of this reaction solutions was then added to a cation exchange resin (AG 500 W×4, 200-400 meshes, manufactured by Bio-Rad Co., column size: 0.5×1.5 cm), and the produced tritium anodesine alone was allowed to combine, washed with 6 ml of distilled water and eluted with 1.5 ml of 3 N-ammonia water. The whole quantity of the elutant was added with 10 ml of a triton-toluene type scintillator and the produced tritium adenosine was measured by a liquid scintillation counter to determine the phosphodiesterase activity.
In this way, the phosphodiesterase activation value (Vs) of the test compounds of the respective concentrations was determined, and the phosphodiesterase obstruction rate (%) was determined from said activation value (Vs) and control value (Vc) (obtained from water not containing any test compound) from the following formula: [formula]

[2] = Acute toxicity test; details: mouse, in vivo; male mice, oral administration
Method: The test compounds were administered orally to the mice and LD50 (mg/kg) of the compounds was determined.

[3] = tested on: rabbit platelet (collagen-induced aggregation); test: Platelet aggregation inhibitory effect, collagen-induced aggregation in rabbit platelet; assay type: cell-based; details: Oryctolagus cuniculus, read-out: Inhibition effect on collagen-induced aggregation in rabbit platelet
From the text: (§1) The blood sample used for the test is a 1/9 (by volume) mixture of sodium citrate and whole blood collected from rabbit. Said sample is subjected to 10-minute centrifugal separation at 1,000 r.p.m. to obtain a platelet rich plasma (PRP). The thus obtained PRP is separated, and the remaining blood sample is further subjected to 15-minute centrifugal separation at 3,000 r.p.m. to obtain a platelet poor plasma (PPP).
(§2) The number of platelets in the PRP is counted by the Brecher-Clonkite Method, and the PRP is diluted with the PPP to prepare a PRP sample with platelet concentration of 300,000/mm^3 for the adenosine diphosphate (ADP)-induced aggregation test. There is also prepared a PRP sample with platelet concentration of 450,000/mm^3 for the collagen-induced aggregation test.
(§3) 0.6 Ml of said PRP sample is added into 0.01 ml of a solution of a test compound of a predetermined concentration and the mixture is placed in a 37° C. thermostat for one minute. Then 0.07 ml of an ADP or collagen solution is added to the mixture. Transmittance of this mixture is determined and the change of transmittance is recorded by using the aggregometer at stirrer speed of 1,100 r.p.m. […] ADP is adjusted to a concentration of 7.5×10^-5 M, and the collagen solution is prepared by triturating 100 mg of collagen with 5 ml of said buffer and the supernatant is used as collagen inducer. Adenosine and acetylsalicylic acid are used as controls for the ADP-induced aggregation test and the collagen-induced aggregation test, respectively. The platelet aggregation inhibitory effect is measured in terms of percent inhibition with respect to the aggregation rate of the controls. The aggregation rate is calculated from the following formula: [formula] wherein a: transmittance of PRP
(§4) b: transmittance of PRP containing a test compound and an aggregation inducer
(§5) The compounds tested are as follows.

[4] = tested on: rabbit platelet (ADP-induced aggregation); test: Platelet aggregation inhibitory effect, ADP-induced aggregation in rabbit platelet; assay type: cell-based; details: Oryctolagus cuniculus; for inhibition at 100 µM / inhibition at 10 µM: read-out: Inhibition effect on ADP-induced aggregation in rabbit platelet; for inhibition at 1 µM: concentration of the test compound solution 10^-6 mole
From the text: as §1, §2, §3, §4, §5

[5] = concentration of the test compound solution 10^-4 mole
[6] = concentration of the test compound solution 10^-5 mole
[7] = concentration of the test compound solution 10^-6 mole

| Structure (SMILES) | inhibition at 100 µM [3, 5] | inhibition at 10 µM [3, 6] | inhibition at 100 µM [4, 5] | further results |
| --- | --- | --- | --- | --- |
| CC(C)Cn1c(=O)n(C)c(=O)c2[nH]cnc21 [1-Methyl-3-isobutylxanthine, 1-methyl-3-isobutylxanthine, reference compound] | – | – | – | inhibition at 1 µM ([1]; concentration of test compound solution 10^-6 mole): 63.4%; inhibition ([1]; concentration of test compound solution 10^-7 mole): 4.2% |
| CC(C)n1nnnc1CCCOc1ccc2[nH]c(=O)ccc2c1 [Compound 2, 6-[3-(1-Isopropyltetrazol-5-yl)propoxy]carbostyril] | 100% | 58.1% | 74.7% | LD50 [2]: > 1000 mg/kg; inhibition at 1 µM [3, 7]: 11.8%; inhibition at 10 µM [4, 6]: 36.8%; inhibition at 1 µM [4]: 11.9% |
| Cn1c(=O)ccc2cc(OCCCc3nnnn3C3CCCCC3)ccc21 [Compound 8, 1-Methyl-6-[3-(1-cyclohexyltetrazol-5-yl)propoxy]carbostyril] | 91.5% | 43.4% | 87.8% | LD50 [2]: > 1000 mg/kg; inhibition at 1 µM [3, 7]: 18.6%; inhibition at 10 µM [4, 6]: 42.4%; inhibition at 1 µM [4]: 21.3% |
| Cc1cc(=O)[nH]c2ccc(OCCCc3nnnn3C3CCCCC3)cc12 [Compound 10, 4-Methyl-6-[3-(1-cyclohexyltetrazol-5-yl)propoxy]carbostyril] | 100% | 100% | 100% | LD50 [2]: > 1000 mg/kg; inhibition at 1 µM [3, 7]: 18.2%; inhibition at 10 µM [4, 6]: 61.7%; inhibition at 1 µM [4]: 28.1% |
| O=C1CCc2c(cccc2OCCCc2nnnn2C2CCCCC2)N1 [Compound 11, 5-[3-(1-Cyclohexyltetrazol-5-yl)propoxy]-3,4-dihydrocarbostyril] | 98.4% | 42.4% | 90.4% | LD50 [2]: > 1000 mg/kg; inhibition at 10 µM [4, 6]: 30.2% |
| CC(=O)Oc1ccccc1C(=O)O [Compound 17, Aspirin, reference compound] | – | – | – | inhibition at 1 µM [3]: 7%; inhibition at 10 µM [3]: 9%; inhibition at 100 µM [3]: 65%; inhibition at 10 µM [4]: 0%; inhibition at 100 µM [4]: 7% |
| CSc1nnnn1CCCOc1ccc2c(c1)CCC(=O)N2 [Compound 18, 6-[3-(5-Methylthiotetrazol-1-yl)propoxy]-3,4-dihydrocarbostyril, reference compound] | 67.4% | 13.3% | 0% | – |
| CSc1nnn(CCCOc2ccc3c(c2)CCC(=O)N3)n1 [Compound 19, 6-[3-(5-Methylthiotetrazol-2-yl)propoxy]-3,4-dihydrocarbostyril, reference compound] | 73.4% | 1.3% | 2.3% | – |
| O=C1CCc2cc(OCCCn3cnnn3)ccc2N1 [Compound 20, 6-[3-(Tetrazol-1-yl)propoxy]-3,4-dihydrocarbostyril, reference compound] | 77.4% | 0% | 4.3% | – |
| O=C1CCc2c(cccc2OCCN2CCCCC2)N1 [Compound 21, 5-(2-Piperidinoethoxy)-3,4-dihydrocarbostyril, reference compound] | 25% | – | 18% | – |
| O=C1CCc2c(cccc2OCCN2CCOCC2)N1 [Compound 22, 5-(2-Morpholinoethoxy)-3,4-dihydrocarbostyril, reference compound] | 23% | – | 13% | – |
| O=C1CCc2c(cccc2OCCCN2CCCCC2)N1 [Compound 23, 5-(3-Piperidinopropoxy)-3,4-dihydrocarbostyril, reference compound] | 27% | – | 15% | – |
| O=C1CCc2cc(OCCN3CCOCC3)ccc2N1 [Compound 24, 6-(2-Morpholinoethoxy)-3,4-dihydrocarbostyril, reference compound] | 31% | – | 17% | – |
| O=C1CCc2ccc(OCCCN3CCCCC3)cc2N1 [Compound 25, 7-(3-Piperidinopropoxy)-3,4-dihydrocarbostyril, reference compound] | 18% | – | 12% | – |
| CC(COc1cccc2c1NC(=O)CC2)N1CCCCC1 (stereo not drawn) [Compound 26, 8-(2-Piperidinopropoxy)-3,4-dihydrocarbostyril, reference compound] | 12% | – | 14% | – |
